Laboratory results: ChEMBL document CHEMBL1154822, “Synthesis and antiproliferative activity of 7-azaindirubin-3'-oxime, a 7-aza isostere of the natural indirubin pharmacophore” (J Nat Prod, 2009)

Key:
Format in all cases: functional
SK-OV-3 [1] = test: Cytotoxicity against human SKOV3 cells assessed as cell growth at 100 uM after 1 to 11 days by MTT assay; details: read-out: Activity
UO-31 = test: Cytotoxicity against human UO31 cells assessed as cell growth at 1 mM after 1 to 11 days by MTT assay; details: read-out: Activity
LOX IMVI [2] = test: Cytotoxicity against human LOXIMVI cells assessed as cell growth at 0.1 uM after 1 to 11 days by MTT assay; details: read-out: Activity
SNB-75 = test: Cytotoxicity against human SNB75 cells assessed as cell growth at 0.1 uM after 1 to 11 days by MTT assay; details: read-out: Activity
OVCAR-3 [3] = test: Cytotoxicity against human OVCAR-3 cells assessed as cell growth at 10 uM after 1 to 11 days by MTT assay; details: read-out: Activity
Malme-3M [4] = test: Cytotoxicity against human MALME-3M cells assessed as cell growth at 1 uM after 1 to 11 days by MTT assay; details: read-out: Activity
SN12C = test: Cytotoxicity against human SN12C cells assessed as cell growth at 100 uM after 1 to 11 days by MTT assay; details: read-out: Activity
MDA-MB-231 [5] = test: Cytotoxicity against human MDA-MB-231 cells assessed as cell growth at 1 uM after 1 to 11 days by MTT assay; details: read-out: Activity
SK-MEL-28 = test: Cytotoxicity against human SK-MEL-28 cells assessed as cell growth at 0.1 uM after 1 to 11 days by MTT assay; details: read-out: Activity
PC-3 = test: Cytotoxicity against human PC3 cells after 1 to 11 days by MTT assay
NCI-H522 = test: Cytotoxicity against human NCI-H522 cells assessed as cell growth at 1 uM after 1 to 11 days by MTT assay; details: read-out: Activity
IGROV-1 = test: Cytotoxicity against human IGROV1 cells assessed as cell growth at 1 uM after 1 to 11 days by MTT assay; details: read-out: Activity
SK-MEL-5 [6] = test: Cytotoxicity against human SK-MEL-5 cells assessed as cell growth at 0.1 uM after 1 to 11 days by MTT assay; details: read-out: Activity
SF-539 = test: Cytotoxicity against human SF539 cells assessed as cell growth at 1 mM after 1 to 11 days by MTT assay; details: read-out: Activity
NCI-H322M [7] = test: Cytotoxicity against human NCI-H322M cells after 1 to 11 days by MTT assay
CCRF-CEM = test: Cytotoxicity against human CCRF-CEM cells assessed as cell growth at 0.1 uM after 1 to 11 days by MTT assay; details: read-out: Activity
COLO 205 [8] = test: Cytotoxicity against human COLO205 cells assessed as cell growth at 100 uM after 1 to 11 days by MTT assay; details: read-out: Activity
SNB-19 [9] = test: Cytotoxicity against human SNB19 cells after 1 to 11 days by MTT assay
SR = test: Cytotoxicity against human SR cells assessed as cell growth at 0.1 uM after 1 to 11 days by MTT assay; details: read-out: Activity
MDA-MB-231 [10] = test: Cytotoxicity against human MDA-MB-231 cells assessed as cell growth at 100 uM after 1 to 11 days by MTT assay; details: read-out: Activity
HCT-15 = test: Cytotoxicity against human HCT15 cells assessed as cell growth at 10 uM after 1 to 11 days by MTT assay; details: read-out: Activity
SK-OV-3 [11] = test: Cytotoxicity against human SKOV3 cells assessed as cell growth at 0.1 uM after 1 to 11 days by MTT assay; details: read-out: Activity
NCI-H322M [12] = test: Cytotoxicity against human NCI-H322M cells assessed as cell growth at 10 uM after 1 to 11 days by MTT assay; details: read-out: Activity
Malme-3M [13] = test: Cytotoxicity against human MALME-3M cells assessed as cell growth at 0.1 uM after 1 to 11 days by MTT assay; details: read-out: Activity
DU-145 [14] = test: Cytotoxicity against human DU145 cells assessed as cell growth at 100 uM after 1 to 11 days by MTT assay; details: read-out: Activity
LOX IMVI [15] = test: Cytotoxicity against human LOXIMVI cells assessed as cell growth at 1 uM after 1 to 11 days by MTT assay; details: read-out: Activity
SW-620 [16] = test: Cytotoxicity against human SW620 cells assessed as cell growth at 10 uM after 1 to 11 days by MTT assay; details: read-out: Activity
MDA-MB-468 = test: Cytotoxicity against human MDA-MB-468 cells assessed as cell growth at 1 mM after 1 to 11 days by MTT assay; details: read-out: Activity
M14 = test: Cytotoxicity against human M14 cells assessed as cell growth at 1 mM after 1 to 11 days by MTT assay; details: read-out: Activity
SK-MEL-5 [17] = test: Cytotoxicity against human SK-MEL-5 cells after 1 to 11 days by MTT assay
OVCAR-8 = test: Cytotoxicity against human OVCAR8 cells after 1 to 11 days by MTT assay
SNB-19 [18] = test: Cytotoxicity against human SNB19 cells assessed as cell growth at 0.1 uM after 1 to 11 days by MTT assay; details: read-out: Activity
DU-145 [19] = test: Cytotoxicity against human DU145 cells assessed as cell growth at 0.1 uM after 1 to 11 days by MTT assay; details: read-out: Activity
OVCAR-3 [20] = test: Cytotoxicity against human OVCAR-3 cells after 1 to 11 days by MTT assay
T47D = test: Cytotoxicity against human T47D cells assessed as cell growth at 10 uM after 1 to 11 days by MTT assay; details: read-out: Activity
SW-620 [21] = test: Cytotoxicity against human SW620 cells assessed as cell growth at 1 uM after 1 to 11 days by MTT assay; details: read-out: Activity
K562 = test: Cytotoxicity against human K562 cells assessed as cell growth at 100 uM after 1 to 11 days by MTT assay; details: read-out: Activity
COLO 205 [22] = test: Cytotoxicity against human COLO205 cells assessed as cell growth at 1 uM after 1 to 11 days by MTT assay; details: read-out: Activity
DU-145 [23] = test: Cytotoxicity against human DU145 cells assessed as cell growth at 10 uM after 1 to 11 days by MTT assay; details: read-out: Activity
OVCAR-5 = test: Cytotoxicity against human OVCAR5 cells assessed as cell growth at 1 mM after 1 to 11 days by MTT assay; details: read-out: Activity
MOLT-4 = test: Cytotoxicity against human MOLT4 cells assessed as cell growth at 1 mM after 1 to 11 days by MTT assay; details: read-out: Activity
ACHN = test: Cytotoxicity against human ACHN cells assessed as cell growth at 1 mM after 1 to 11 days by MTT assay; details: read-out: Activity
Malme-3M [24] = test: Cytotoxicity against human MALME-3M cells assessed as cell growth at 10 uM after 1 to 11 days by MTT assay; details: read-out: Activity
DU-145 [25] = test: Cytotoxicity against human DU145 cells assessed as cell growth at 1 uM after 1 to 11 days by MTT assay; details: read-out: Activity
[26] = read-out: LC50 (the source's name)

O=C1Nc2ncccc2/C1=C1/Nc2ccccc2/C1=N\O
growth at 100 µM (SK-OV-3 [1]): -6% | growth at 1000 µM (UO-31): 11% | growth at 0.1 µM (LOX IMVI [2]): 98% | growth at 0.1 µM (SNB-75): 84% | growth at 10 µM (OVCAR-3 [3]): 80% | growth at 1 µM (Malme-3M [4]): 89% | growth at 100 µM (SN12C): 37% | growth at 1 µM (MDA-MB-231 [5]): 88% | growth at 0.1 µM (SK-MEL-28): 88% | GI50 (PC-3): 6.82 µM | TGI (PC-3): > 100 µM | CC50 (PC-3; [26]): > 100 µM | growth at 1 µM (NCI-H522): 99% | growth at 1 µM (IGROV-1): 84% | growth at 0.1 µM (SK-MEL-5 [6]): 104% | growth at 1000 µM (SF-539): 52% | GI50 (NCI-H322M [7]): 1.35 µM | TGI (NCI-H322M [7]): > 100 µM | CC50 (NCI-H322M [7]; [26]): > 100 µM | growth at 0.1 µM (CCRF-CEM): 94% | growth at 100 µM (COLO 205 [8]): 59% | GI50 (SNB-19 [9]): > 100 µM | TGI (SNB-19 [9]): > 100 µM | CC50 (SNB-19 [9]; [26]): > 100 µM | growth at 0.1 µM (SR): 109% | growth at 100 µM (MDA-MB-231 [10]): 40% | growth at 10 µM (HCT-15): 80% | growth at 0.1 µM (SK-OV-3 [11]): 100% | growth at 10 µM (NCI-H322M [12]): 56% | growth at 0.1 µM (Malme-3M [13]): 94% | growth at 100 µM (DU-145 [14]): 39% | growth at 1 µM (LOX IMVI [15]): 97% | growth at 10 µM (SW-620 [16]): 98% | growth at 1000 µM (MDA-MB-468): 13% | growth at 1000 µM (M14): 21% | GI50 (SK-MEL-5 [17]): 9.53 µM | TGI (SK-MEL-5 [17]): > 100 µM | CC50 (SK-MEL-5 [17]; [26]): > 100 µM | GI50 (OVCAR-8): > 100 µM | TGI (OVCAR-8): > 100 µM | CC50 (OVCAR-8; [26]): > 100 µM | growth at 0.1 µM (SNB-19 [18]): 94% | growth at 0.1 µM (DU-145 [19]): 102% | GI50 (OVCAR-3 [20]): > 100 µM | TGI (OVCAR-3 [20]): > 100 µM | CC50 (OVCAR-3 [20]; [26]): > 100 µM | growth at 10 µM (T47D): 65% | growth at 1 µM (SW-620 [21]): 94% | growth at 100 µM (K562): 39% | growth at 1 µM (COLO 205 [22]): 87% | growth at 10 µM (DU-145 [23]): 84% | growth at 1000 µM (OVCAR-5): 49% | growth at 1000 µM (MOLT-4): 18% | growth at 1000 µM (ACHN): 17% | growth at 10 µM (Malme-3M [24]): 91% | growth at 1 µM (DU-145 [25]): 102%
